From patent US10219516B2, “Molecules having pesticidal utility, and intermediates, compositions, and processes, related thereto” (priority 2015, dated 2019)
Read-outs that look alike come from different tables or passages of the source.

Assays:
Format in all cases: in vivo
[1] = tested on: Yellow Fever Mosquito (Aedes aegypti, AEDSAE); experiment: Bioassay on Yellow Fever Mosquito (YFM), 96-well plate larval assay; details: for YFM rating: Yellow Fever Mosquito, 96-well plate larval assay; for YFM (Biological Results, rating): Species YFM (Yellow Fever Mosquito)
Method in brief: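 Each well was scored for mortality after 3 days at room temperature under a non-evaporative lid. Test molecules came from DMSO masters (4000 ppm stock) diluted with water/acetone 90:10 and dispensed into six replicate plates, which were then infested with roughly 1-day-old larvae in liver-powder water.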

[2] = tested on: Beet Armyworm (Spodoptera exigua, LAPHEG); experiment: Bioassay on Beet Armyworm (BAW), 128-well diet tray assay
Method in brief: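 Second-instar larvae, one to five per well, placed on artificial diet surface-treated with 50 μg/cm^2 compound applied in 90:10 acetone-water and dried. Held 5–7 days at 25° C., 14:10 light-dark. Percent mortality recorded per well and averaged over eight wells.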

[3] = tested on: Cabbage Looper (Trichoplusia ni, TRIPNI); experiment: Bioassay on Cabbage Looper (CL), 128-well diet tray assay; details: Trichoplusia ni
Method in brief: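 Percent mortality, averaged across eight replicate wells, was scored after five to seven days at 25° C. under a 14:10 light-dark cycle. Each well held one to five second instar larvae on artificial diet treated at 50 μg/cm^2 with compound from 90:10 acetone-water, allowed to dry before infestation.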

[4] = Beet Armyworm, 128-well diet tray assay, read-out: BAW rating
[5] = Cabbage Looper, 128-well diet tray assay, read-out: CL rating
[6] = Species BAW (Beet Armyworm), read-out: BAW (Biological Results, rating)
[7] = Species CL (Cabbage Looper), read-out: CL (Biological Results, rating)

## O=C(Nc1cnc(F)c(Br)c1)c1cc(NC(=O)[C@H]2[C@H](c3cc(Cl)cc(Cl)c3)C2(Cl)Cl)ccc1Cl (relative stereo) [F395, N-(5-Bromo-6-fluoropyridin-3-yl)-2-chloro-5-(trans-2,2-dichloro-3-(3,5-dichlorophenyl)cyclopropane-1-carboxamido)benzamide]
[1]
  YFM rating: A (80-100)
[2]; [4]
  pest or weed control at 50 µg/cm2: 50 to 100%
[3]; [5]
  pest or weed control at 50 µg/cm2: 50 to 100%

## O=C(Nc1ncc(F)cc1F)c1cc(NC(=O)[C@H]2[C@H](c3ccc(C(F)F)cc3)C2(Cl)Cl)ccc1Cl (relative stereo) [F591, 2-Chloro-5-(trans-2,2-dichloro-3-(4-(difluoromethyl)phenyl)cyclopropane-1-carboxamido)-N-(3,5-difluoropyridin-2-yl)benzamide]
[1]
  YFM rating: A (80-100)
[2]; [4]
  pest or weed control at 50 µg/cm2: 50 to 100%
[3]; [5]
  pest or weed control at 50 µg/cm2: 50 to 100%

## CN(C(=O)c1cccc(NC(=O)[C@H]2[C@H](c3ccc(Cl)c(Cl)c3)C2(Cl)Cl)c1F)c1ccccc1 (relative stereo) [F70, trans-3-(2,2-Dichloro-3-(3,4-dichlorophenyl)cyclopropane-1-carboxamido)-2-fluoro-N-methyl-N-phenylbenzamide]
[1]
  YFM (Biological Results, rating): A (80-100)
[2]; [6]
  pest or weed control at 50 µg/cm2: 50 to 100%
[3]; [7]
  pest or weed control at 50 µg/cm2: 50 to 100%

## O=C(Nc1ccc(F)cc1)c1cc(NC(=O)[C@H]2[C@H](c3cc(Cl)cc(Cl)c3)C2(Cl)Cl)ccc1C(F)(F)F (relative stereo) [F3, trans-5-(2,2-Dichloro-3-(3,5-dichlorophenyl)cyclopropane-1-carboxamido)-N-(4-fluorophenyl)-2-(trifluoromethyl)benzamide]
[1]
  YFM (Biological Results, rating): A (80-100)
[2]; [6]
  pest or weed control at 50 µg/cm2: 50 to 100%
[3]; [7]
  pest or weed control at 50 µg/cm2: 50 to 100%

## O=C(NC1CCc2ncccc2C1)c1cc(NC(=O)C2C(c3cc(Cl)cc(Cl)c3)C2(Cl)Cl)ccc1Cl (stereo not drawn) [F567, 2-Chloro-5-trans-(2,2-dichloro-3-(3,5-dichlorophenyl)cyclopropane-1-carboxamido)-N-(5,6,7,8-tetrahydroquinolin-6-yl)benzamide]
[1]
  YFM rating: A (80-100)
[2]; [4]
  pest or weed control at 50 µg/cm2: 50 to 100%
[3]; [5]
  pest or weed control at 50 µg/cm2: 50 to 100%

## N#Cc1c(F)cccc1NC(=O)c1cc(NC(=O)[C@H]2[C@H](c3cc(Cl)cc(Cl)c3)C2(Cl)Cl)ccc1Cl (relative stereo) [F298, 2-Chloro-N-(2-cyano-3-fluorophenyl)-5-(trans-2,2-dichloro-3-(3,5-dichlorophenyl)cyclopropane-1-carboxamido)benzamide]
[1]
  YFM (Biological Results, rating): A (80-100)
[2]; [6]
  pest or weed control at 50 µg/cm2: 50 to 100%
[3]; [7]
  pest or weed control at 50 µg/cm2: 50 to 100%

## O=C(Nc1ccc([S+]([O-])C(F)(F)F)cc1)c1cc(NC(=O)[C@H]2[C@H](c3cc(Cl)cc(Cl)c3)C2(Cl)Cl)ccc1Cl (relative stereo) [PF20, trans-2-Chloro-5-(2,2-dichloro-3-(3,5-dichlorophenyl)cyclopropane-1-carboxamido)-N-(4-((trifluoromethyl)sulfinyl)phenyl)benzamide]
[1]
  YFM rating: A (80-100)
[2]; [4]
  pest or weed control at 50 µg/cm2: 50 to 100%
[3]; [5]
  pest or weed control at 50 µg/cm2: 50 to 100%

## Cc1cc(Cl)cc([C@H]2[C@H](C(=O)Nc3ccc(Cl)c(C(=O)Nc4ccc(F)cc4)c3)C2(Cl)Cl)c1 (relative stereo) [F116, trans-2-Chloro-5-(2,2-dichloro-3-(3-chloro-5-methylphenyl)cyclopropane-1-carboxamido)-N-(4-fluorophenyl)benzamide]
[1]
  YFM (Biological Results, rating): A (80-100)
[2]; [6]
  pest or weed control at 50 µg/cm2: 50 to 100%
[3]; [7]
  pest or weed control at 50 µg/cm2: 50 to 100%

## Nc1cncc(NC(=O)c2cc(NC(=O)[C@H]3[C@H](c4cc(Cl)cc(Cl)c4)C3(Cl)Cl)ccc2Cl)c1 [F362, N-(5-aminopyridin-3-yl)-2-chloro-5-((1R,3R)-2,2-dichloro-3-(3,5-dichlorophenyl)cyclopropane-1-carboxamido)benzamide]
[1]
  YFM (Biological Results, rating): A (80-100)
[2]; [6]
  pest or weed control at 50 µg/cm2: 50 to 100%
[3]; [7]
  pest or weed control at 50 µg/cm2: 50 to 100%

## N#Cc1ccc(NC(=O)c2cc(NC(=O)[C@H]3[C@H](c4cc(Cl)cc(Cl)c4)C3(Cl)Cl)ccc2Cl)cc1F (relative stereo) [F233, 2-Chloro-N-(4-cyano-3-fluorophenyl)-5-(trans-2,2-dichloro-3-(3,5-dichlorophenyl)cyclopropane-1-carboxamido)benzamide]
[1]
  YFM (Biological Results, rating): A (80-100)
[2]; [6]
  pest or weed control at 50 µg/cm2: 50 to 100%
[3]; [7]
  pest or weed control at 50 µg/cm2: 50 to 100%

## C=Cc1ccc([C@H]2[C@H](C(=O)Nc3ccc(Cl)c(C(=O)Nc4ccc(F)cc4F)c3)C2(Cl)Cl)cc1Cl (relative stereo) [F319, 2-Chloro-5-(trans-2,2-dichloro-3-(3-chloro-4-vinylphenyl)cyclopropane-1-carboxamido)-N-(2,4-difluorophenyl)benzamide]
[1]
  YFM (Biological Results, rating): A (80-100)
[2]; [6]
  pest or weed control at 50 µg/cm2: 50 to 100%
[3]; [7]
  pest or weed control at 50 µg/cm2: 50 to 100%

## Nc1cc(F)c(NC(=O)c2cc(NC(=O)[C@H]3[C@H](c4cc(Cl)c(Cl)c(Cl)c4)C3(Cl)Cl)ccc2Cl)cc1F [F570, trans-N-(4-Amino-2,5-difluorophenyl)-2-chloro-5-((1R,3R)-2,2-dichloro-3-(3,4,5-trichlorophenyl)cyclopropane-1-carboxamido)benzamide]
[1]
  YFM rating: A (80-100)
[2]; [4]
  pest or weed control at 50 µg/cm2: 50 to 100%
[3]; [5]
  pest or weed control at 50 µg/cm2: 50 to 100%

## CN(C(=O)c1cc(NC(=O)[C@H]2[C@H](c3ccc(C(F)(F)F)cc3)C2(Cl)Cl)ccc1Cl)c1ccc(F)cc1 (relative stereo) [F82, trans-2-Chloro-5-(2,2-dichloro-3-(4-(trifluoromethyl)phenyl)cyclopropane-1-carboxamido)-N-(4-fluorophenyl)-N-methylbenzamide]
[1]
  YFM (Biological Results, rating): B (More than 0-Less than 80)
[2]; [6]
  pest or weed control at 50 µg/cm2: 50 to 100%
[3]; [7]
  pest or weed control at 50 µg/cm2: 50 to 100%

## CN(C(=O)CC(F)(F)F)c1ccc(NC(=O)c2cc(NC(=O)[C@H]3[C@H](c4cc(Cl)cc(Cl)c4)C3(Cl)Cl)ccc2Cl)cc1 (relative stereo) [PF30, trans-2-Chloro-5-(2,2-dichloro-3-(3,5-dichlorophenyl)cyclopropane-1-carboxamido)-N-(4-(3,3,3-trifluoro-N-methylpropanamido)phenyl)benzamide]
[1]
  YFM rating: B (More than 0-Less than 80)
[2]; [4]
  pest or weed control at 50 µg/cm2: 50 to 100%
[3]; [5]
  pest or weed control at 50 µg/cm2: 50 to 100%

## N#Cc1ccc2c(N)nn(C(=O)c3cc(NC(=O)[C@H]4[C@H](c5cc(Cl)cc(Cl)c5)C4(Cl)Cl)ccc3Cl)c2c1 (relative stereo) [F493, trans-N-(3-(3-Amino-6-cyano-1H-indazole-1-carbonyl)-4-chlorophenyl)-2,2-dichloro-3-(3,5-dichlorophenyl)cyclopropane-1-carboxamide]
[1]
  YFM rating: A (80-100)
[2]; [4]
  pest or weed control at 50 µg/cm2: 50 to 100%
[3]; [5]
  pest or weed control at 50 µg/cm2: 50 to 100%

## Cc1cc(F)ccc1NC(=O)c1cc(NC(=O)[C@H]2[C@H](c3ccc(F)c(Cl)c3)C2(Cl)Cl)ccc1Cl (relative stereo) [PF48, trans-2-Chloro-5-(2,2-dichloro-3-(3-chloro-4-fluorophenyl)cyclopropane-1-carboxamido)-N-(4-fluoro-2-methylphenyl)benzamide]
[1]
  YFM rating: A (80-100)
[2]; [4]
  pest or weed control at 50 µg/cm2: 50 to 100%
[3]; [5]
  pest or weed control at 50 µg/cm2: 50 to 100%

## Cn1ccc2cccc(NC(=O)c3cc(NC(=O)[C@H]4[C@H](c5cc(Cl)cc(Cl)c5)C4(Cl)Cl)ccc3Cl)c21 (relative stereo) [F531, 2-Chloro-5-(trans)-(2,2-dichloro-3-(3,5-dichlorophenyl)cyclopropane-1-carboxamido)-N-(1-methyl-1H-indol-7-yl)benzamide]
[1]
  YFM rating: A (80-100)
[2]; [4]
  pest or weed control at 50 µg/cm2: 50 to 100%
[3]; [5]
  pest or weed control at 50 µg/cm2: 50 to 100%

## COc1cc(F)ccc1NC(=O)c1cc(NC(=O)[C@H]2[C@H](c3cc(Cl)cc(Cl)c3)C2(Cl)Cl)ccc1Cl (relative stereo) [PF58, trans-2-Chloro-5-(2,2-dichloro-3-(3,5-dichlorophenyl)cyclopropane-1-carboxamido)-N-(4-fluoro-2-methoxyphenyl)benzamide]
[1]
  YFM rating: A (80-100)
[2]; [4]
  pest or weed control at 50 µg/cm2: 50 to 100%
[3]; [5]
  pest or weed control at 50 µg/cm2: 50 to 100%

## Nc1cc(NC(=O)c2cc(NC(=O)[C@H]3[C@H](c4cc(Cl)cc(Cl)c4)C3(Cl)Cl)ccc2Cl)ccc1F (relative stereo) [F238, trans-N-(3-Amino-4-fluorophenyl)-2-chloro-5-(2,2-dichloro-3-(3,5-dichlorophenyl)cyclopropane-1-carboxamido)benzamide]
[1]
  YFM (Biological Results, rating): A (80-100)
[2]; [6]
  pest or weed control at 50 µg/cm2: 50 to 100%
[3]; [7]
  pest or weed control at 50 µg/cm2: 50 to 100%

## Nc1c(F)cc(NC(=O)c2cc(NC(=O)[C@H]3[C@H](c4cc(Cl)c(Cl)c(Cl)c4)C3(Cl)Cl)ccc2Cl)cc1F [F380, N-(4-Amino-3,5-difluorophenyl)-2-chloro-5-((1R,3R)-2,2-dichloro-3-(3,4,5-trichlorophenyl)cyclopropane-1-carboxamido)benzamide]
[1]
  YFM rating: A (80-100)
[2]; [4]
  pest or weed control at 50 µg/cm2: 50 to 100%
[3]; [5]
  pest or weed control at 50 µg/cm2: 50 to 100%

## O=C(Nc1ccc(Cl)c(Cl)c1F)c1cc(NC(=O)C2C(c3cc(Cl)cc(Cl)c3)C2(Cl)Cl)ccc1Cl (stereo not drawn) [PF127, 2-Chloro-N-(3,4-dichloro-2-fluorophenyl)-5-(trans)-2,2-dichloro-3-(3,5-dichlorophenyl)cyclopropane-1-carboxamido)benzamide]
[1]
  YFM rating: A (80-100)
[2]; [4]
  pest or weed control at 50 µg/cm2: 50 to 100%
[3]; [5]
  pest or weed control at 50 µg/cm2: 50 to 100%
